Tests used:
[1] = target: T1, PPARα (h) (Homo sapiens, UniProt Q07869); test: PPARα agonist effect, coactivator Alpha screen; type: biochemical
T1 sequence (Q07869 1-468): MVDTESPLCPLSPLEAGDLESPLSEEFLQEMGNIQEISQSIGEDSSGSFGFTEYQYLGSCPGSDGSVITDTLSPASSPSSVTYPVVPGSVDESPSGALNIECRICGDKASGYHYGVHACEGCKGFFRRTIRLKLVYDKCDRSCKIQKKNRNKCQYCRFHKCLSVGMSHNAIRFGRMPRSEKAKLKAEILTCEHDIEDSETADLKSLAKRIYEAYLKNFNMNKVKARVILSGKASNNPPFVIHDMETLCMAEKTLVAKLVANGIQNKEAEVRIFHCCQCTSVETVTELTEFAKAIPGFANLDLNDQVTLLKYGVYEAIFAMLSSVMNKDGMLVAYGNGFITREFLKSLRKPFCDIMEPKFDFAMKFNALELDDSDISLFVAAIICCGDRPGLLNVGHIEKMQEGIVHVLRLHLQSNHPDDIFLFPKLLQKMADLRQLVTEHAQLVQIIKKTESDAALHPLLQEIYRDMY
Procedure: The agonist or antagonist activity of compound 1 on the PPAR receptors was tested by fluorescence techniques. • Material and Methods
The results are expressed as: • percentage of control specific agonist response (measured specific response/control specific agonist response)×100) and • percentage inhibition of the control specific agonist response (100−((measured specific response)/control specific agonist response)×100)) obtained in the presence of compound 1.
The EC50 values (concentration at which the maximum specific response is 50%) and the IC50 values (concentration at which the maximum control specific agonist response is inhibited by 50%) are determined by non-linear regression analysis of the concentration-response curves with a mean replicated value using adjustment of Hill's equation

[2] = target: T2, PPARγ (h) (Homo sapiens, UniProt P37231); test: PPARγ competitive radioligand binding assay (Cerep)
T2 construct: Cerep (contract laboratory that ran the assay)
T2 sequence (P37231 1-505): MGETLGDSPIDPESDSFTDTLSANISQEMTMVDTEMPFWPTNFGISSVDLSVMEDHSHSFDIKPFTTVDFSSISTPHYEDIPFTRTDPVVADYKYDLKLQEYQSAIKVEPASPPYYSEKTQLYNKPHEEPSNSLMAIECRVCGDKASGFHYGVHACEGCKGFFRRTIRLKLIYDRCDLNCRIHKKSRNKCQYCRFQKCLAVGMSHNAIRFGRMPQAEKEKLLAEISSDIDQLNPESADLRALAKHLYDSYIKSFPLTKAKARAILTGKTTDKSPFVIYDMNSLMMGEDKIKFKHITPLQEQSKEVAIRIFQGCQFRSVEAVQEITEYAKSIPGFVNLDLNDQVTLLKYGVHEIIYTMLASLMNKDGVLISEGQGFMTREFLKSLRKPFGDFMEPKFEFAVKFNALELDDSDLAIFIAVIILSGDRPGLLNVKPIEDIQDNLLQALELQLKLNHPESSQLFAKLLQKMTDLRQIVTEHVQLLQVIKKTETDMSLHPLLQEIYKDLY
Procedure: The affinity of compound 1 for the PPAR receptors (α and γ) was tested by in vitro binding assays (tests carried out by the company Cerep).
This is a nuclear receptor competitive binding assay, between a radiolabelled ligand and the test molecule (here compound 1).
The principle of the technique consists of measuring the displacement of the radioactive ligand bound to the receptor by the test molecule. • Material and Methods
The specific binding of the ligand is defined by the difference between total binding and non-specific binding determined in the presence of an excess of unlabelled ligand.
The results are expressed as: • percentage of control specific binding ((measured specific binding/control specific binding)×100)) • percentage of inhibition of control specific binding ((100−(measured specific binding/control specific binding)) obtained in the presence of compound 1.
The values of IC50 (concentration at which the maximum control specific binding is inhibited by 50%), and the Hill coefficient (nH) are determined by non-linear regression analysis of the curves of competition with a mean replicated value using adjustment of Hill's equation
The inhibition constant (Ki) was calculated using the Cheng-Prusoff equation

[3] = tested on: skin explants (abdominoplasty); test: Histological assessment of the general morphology of skin explants maintained in survival; type: cell-based, human; conditions: 2 μg/mL in DMSO, after 9 days of survival
Procedure: (§1) 1. Preparation of the explants • During abdominoplasty of a person, 45 skin explants were prepared. The explants were put in BEM medium (BIO-EC's Explants Medium) for survival at 37° C. in humid atmosphere, enriched with 5% CO2.
(§2) 2. Application of the products • The solutions are prepared in DMSO from pure products, in order to obtain final concentrations of […] by incorporating an identical volume of 10 μl in each well and for each treatment. The treatment was carried out in the survival medium on days 0, 1, 2, 5 and 7.
(§3) 3. Taking samples • On D0, the 3 explants of batch TO were taken and each explant was cut in two. One part was fixed in buffered formol for observation of the general morphology. The other was frozen and stored at −80° C. • On D5 and D9, 3 explants from each batch were taken and treated in the same way.
4. […]
5. Microscopic observations • The microscopic observations were carried out by light microscopy and fluorescence microscopy, using a Orthoplan-type Leica microscope, with ×25 objective. The images were recorded with a Sony DXC 390P tri CCD camera and stored using the Leica IM1000 data archiving software. • The general morphology was observed on sections in paraffin after staining with Masson trichrome, Goldner variant according to procedure MO-H-157. […]

[4] = tested on: collagen IV; test: Staining and immunolabelling of skin explant sections: collagen IV; type: cell-based, human; conditions: treated skin explant sections
Procedure: as §1, §2, §3
4. Histological treatment • After fixation for 48 hours in buffered formol, the samples were dehydrated and embedded in paraffin using a Leica 1020 automatic dehydrator. They were embedded according to procedure MO-H-153 using a Leica EG 1160 coating station. Sections of 5 μm were prepared according to procedure MO-H-173 using a Minot-type microtome, Leica RM 2125 and mounted on Superfrost® histological glass slides.
6. Staining and immunolabelling
Immunolabelling will be carried out on sections with the appropriate antibody. […]

[5] = tested on: normal human dermal fibroblasts; test: Neosynthesis of sulphated GAGs ([35S]-sulphate incorporation) in dermal fibroblasts; type: cell-based; conditions: monolayer of normal human dermal fibroblasts
Procedure: The effects of this compound were evaluated on a monolayer of normal human dermal fibroblasts by measuring the neosynthesis of glycosaminoglycans designated as sulphated GAGs (incorporation of [^35S]-sulphate). […] This might explain the effect of dermal reinforcement already observed on skin explants ex vivo.

- % Control agonist response ([1]; 10^−5 M): 2%
- % Control agonist response ([1]; 10^−6 M): 0%
- % Control agonist response ([1]; 10^−7 M): −1%
- PPARα agonist activity (conclusion in words) ([1]; 10^−7 to 10^−5 M): not an agonist
- Interpretation of the 49% inhibition of PPARγ specific binding ([2]; 10^−5 M): slight to moderate effect
- inhibition at 10 µM ([2]; 10^−5 M, agonist radioligand, read-out: % Inhibition of control specific binding): 49%
- inhibition at 1 µM ([2]; 10^−6 M, agonist radioligand, read-out: % Inhibition of control specific binding): 1%
- inhibition at 0.1 µM ([2]; 10^−7 M, agonist radioligand, read-out: % Inhibition of control specific binding): 0%
- Activity with respect to the PPARγ receptor (binding, conclusion in words) ([2]; 10^−7 to 10^−5 M): no activity
SMILES: Oc1ccccc1CCOc1ccc(F)cc1 [Compound 1, 2-[2-(4-fluoro-phenoxy)-ethyl]-phenol]
- General morphology: epidermal structure and papillary dermis [3]: very clear epidermal and dermal restructuring activity
- Collagen IV along the dermal-epidermal junction [4]: clear overexpression
- Neosynthesis of sulphated GAGs [5]: stimulated the neosynthesis of sulphated GAGs, in a non-concentration-dependent fashion
